How the values were obtained:
Format in all cases: functional
CCRF-CEM = assay: Cytotoxicity against human CCRF-CEM cells assessed as growth inhibition after 48 hrs by sulforhodamine B assay
HL-60(TB) [1] = assay: Cytotoxicity against human HL-60(TB) cells assessed as growth inhibition after 48 hrs by sulforhodamine B assay; details: HL-60, 48 h
MOLT-4 = assay: Cytotoxicity against human MOLT4 cells assessed as growth inhibition after 48 hrs by sulforhodamine B assay; details: MOLT-4, 48 h; for CC50: read-out: LC50 (the source's name)
IGROV-1 [2] = assay: Cytotoxicity against human IGROV1 cells assessed as growth inhibition after 48 hrs by sulforhodamine B assay; details: IGROV-1, 48 h
OVCAR-3 [3] = assay: Cytotoxicity against human OVCAR3 cells assessed as growth inhibition after 48 hrs by sulforhodamine B assay; details: OVCAR-3, 48 h
MCF7 [4] = assay: Cytotoxicity against human MCF7 cells assessed as growth inhibition after 48 hrs by sulforhodamine B assay; details: MCF7, 48 h
A498 = assay: Cytotoxicity against human A498 cells assessed as cell growth at 0.01 uM after 48 hrs by sulforhodamine B assay relative to control; details: A498, 48 h, read-out: Activity
NCI/ADR-RES = assay: Cytotoxicity against human NCI/ADR-RES cells assessed as cell growth at 0.01 uM after 48 hrs by sulforhodamine B assay relative to control; details: read-out: Activity
SK-MEL-28 = assay: Cytotoxicity against human SK-MEL-28 cells assessed as cell growth at 0.01 uM after 48 hrs by sulforhodamine B assay relative to control; details: SK-MEL-28, 48 h, read-out: Activity
Malme-3M = assay: Cytotoxicity against human MALME-3M cells assessed as cell growth at 0.01 uM after 48 hrs by sulforhodamine B assay relative to control; details: read-out: Activity
NCI-H522 = assay: Cytotoxicity against human NCI-H522 cells assessed as cell growth at 0.01 uM after 48 hrs by sulforhodamine B assay relative to control; details: NCI-H522, 48 h, read-out: Activity
RPMI-8226 [5] = assay: Cytotoxicity against human RPMI8226 cells assessed as cell growth at 0.01 uM after 48 hrs by sulforhodamine B assay relative to control; details: RPMI-8226, 48 h, read-out: Activity
HL-60(TB) [6] = assay: Cytotoxicity against human HL-60(TB) cells assessed as cell growth at 0.1 uM after 48 hrs by sulforhodamine B assay relative to control; details: HL-60, 48 h, read-out: Activity
RPMI-8226 [7] = assay: Cytotoxicity against human RPMI8226 cells assessed as cell growth at 0.1 uM after 48 hrs by sulforhodamine B assay relative to control; details: RPMI-8226, 48 h, read-out: Activity
A549 [8] = assay: Cytotoxicity against human A549/ATCC cells assessed as cell growth at 0.1 uM after 48 hrs by sulforhodamine B assay relative to control; details: A549, 48 h, read-out: Activity
COLO 205 = assay: Cytotoxicity against human COLO205 cells assessed as cell growth at 0.1 uM after 48 hrs by sulforhodamine B assay relative to control; details: COLO 205, 48 h, read-out: Activity
SNB-19 [9] = assay: Cytotoxicity against human SNB19 cells assessed as cell growth at 0.1 uM after 48 hrs by sulforhodamine B assay relative to control; details: SNB-19, 48 h, read-out: Activity
OVCAR-5 = assay: Cytotoxicity against human OVCAR5 cells assessed as cell growth at 0.1 uM after 48 hrs by sulforhodamine B assay relative to control; details: OVCAR-5, 48 h, read-out: Activity
PC-3 = assay: Cytotoxicity against human PC3 cells assessed as cell growth at 0.1 uM after 48 hrs by sulforhodamine B assay relative to control; details: PC-3, 48 h, read-out: Activity
MCF7 [10] = assay: Cytotoxicity against human MCF7 cells assessed as cell growth at 0.1 uM after 48 hrs by sulforhodamine B assay relative to control; details: MCF7, 48 h, read-out: Activity
T47D [11] = assay: Cytotoxicity against human T47D cells assessed as cell growth at 0.1 uM after 48 hrs by sulforhodamine B assay relative to control; details: read-out: Activity
HL-60(TB) [12] = assay: Cytotoxicity against human HL-60(TB) cells assessed as cell growth at 1 uM after 48 hrs by sulforhodamine B assay relative to control; details: HL-60, 48 h, read-out: Activity
RPMI-8226 [13] = assay: Cytotoxicity against human RPMI8226 cells assessed as cell growth at 1 uM after 48 hrs by sulforhodamine B assay relative to control; details: RPMI-8226, 48 h, read-out: Activity
A549 [14] = assay: Cytotoxicity against human A549/ATCC cells assessed as cell growth at 1 uM after 48 hrs by sulforhodamine B assay relative to control; details: A549, 48 h, read-out: Activity
SN12C [15] = assay: Cytotoxicity against human SN12C cells assessed as cell growth at 1 uM after 48 hrs by sulforhodamine B assay relative to control; details: read-out: Activity
UO-31 = assay: Cytotoxicity against human UO31 cells assessed as cell growth at 1 uM after 48 hrs by sulforhodamine B assay relative to control; details: UO-31, 48 h, read-out: Activity
Hs-578T = assay: Cytotoxicity against human Hs 578T cells assessed as cell growth at 1 uM after 48 hrs by sulforhodamine B assay relative to control; details: read-out: Activity
A549 [16] = assay: Cytotoxicity against human A549/ATCC cells assessed as cell growth at 10 uM after 48 hrs by sulforhodamine B assay relative to control; details: A549, 48 h, read-out: Activity
SNB-19 [17] = assay: Cytotoxicity against human SNB19 cells assessed as cell growth at 10 uM after 48 hrs by sulforhodamine B assay relative to control; details: SNB-19, 48 h, read-out: Activity
U-251 [18] = assay: Cytotoxicity against human U251 cells assessed as cell growth at 10 uM after 48 hrs by sulforhodamine B assay relative to control; details: U-251, 48 h, read-out: Activity
IGROV-1 [19] = assay: Cytotoxicity against human IGROV1 cells assessed as cell growth at 10 uM after 48 hrs by sulforhodamine B assay relative to control; details: IGROV-1, 48 h, read-out: Activity
SN12C [20] = assay: Cytotoxicity against human SN12C cells assessed as cell growth at 10 uM after 48 hrs by sulforhodamine B assay relative to control; details: read-out: Activity
NCI-H322M = assay: Cytotoxicity against human NCI-H322M cells assessed as cell growth at 100 uM after 48 hrs by sulforhodamine B assay relative to control; details: read-out: Activity
U-251 [21] = assay: Cytotoxicity against human U251 cells assessed as cell growth at 100 uM after 48 hrs by sulforhodamine B assay relative to control; details: U-251, 48 h, read-out: Activity
OVCAR-3 [22] = assay: Cytotoxicity against human OVCAR3 cells assessed as cell growth at 100 uM after 48 hrs by sulforhodamine B assay relative to control; details: OVCAR-3, 48 h, read-out: Activity
SK-OV-3 = assay: Cytotoxicity against human SKOV3 cells assessed as cell growth at 100 uM after 48 hrs by sulforhodamine B assay relative to control; details: SK-OV-3, 48 h, read-out: Activity
T47D [23] = assay: Cytotoxicity against human T47D cells assessed as cell growth at 100 uM after 48 hrs by sulforhodamine B assay relative to control; details: read-out: Activity

COc1ccc(-c2cc(/C=C/C(=O)c3ccc(OC)c(OC)c3)[nH]n2)cc1
GI50 (CCRF-CEM): 1.34 µM | LC50 (concentration killing 50% of cells) (CCRF-CEM): > 100 µM | TGI (CCRF-CEM): 4.14 µM | GI50 (HL-60(TB) [1]): 2.18 µM | LC50 (HL-60(TB) [1]): > 100 µM | TGI (HL-60(TB) [1]): 6.4 µM | GI50 (MOLT-4): 2.67 µM | TGI (MOLT-4): 8 µM | CC50 (MOLT-4): > 100 µM | GI50 (IGROV-1 [2]): 1.57 µM | LC50 (IGROV-1 [2]): 8.49 µM | TGI (IGROV-1 [2]): 3.65 µM | GI50 (OVCAR-3 [3]): 1.19 µM | LC50 (OVCAR-3 [3]): 5.15 µM | TGI (OVCAR-3 [3]): 2.47 µM | GI50 (MCF7 [4]): 0.41 µM | LC50 (MCF7 [4]): 5.11 µM | TGI (MCF7 [4]): 1.76 µM | growth at 0.01 µM (A498): 91% | growth at 0.01 µM (NCI/ADR-RES): 102% | growth at 0.01 µM (SK-MEL-28): 101% | growth at 0.01 µM (Malme-3M): 89% | growth at 0.01 µM (NCI-H522): 102% | growth at 0.01 µM (RPMI-8226 [5]): 106% | growth at 0.1 µM (HL-60(TB) [6]): 104% | growth at 0.1 µM (RPMI-8226 [7]): 93% | growth at 0.1 µM (A549 [8]): 90% | growth at 0.1 µM (COLO 205): 104% | growth at 0.1 µM (SNB-19 [9]): 90% | growth at 0.1 µM (OVCAR-5): 89% | growth at 0.1 µM (PC-3): 91% | growth at 0.1 µM (MCF7 [10]): 88% | growth at 0.1 µM (T47D [11]): 92% | growth at 1 µM (HL-60(TB) [12]): 86% | growth at 1 µM (RPMI-8226 [13]): 8% | growth at 1 µM (A549 [14]): 77% | growth at 1 µM (SN12C [15]): 80% | growth at 1 µM (UO-31): 61% | growth at 1 µM (Hs-578T): 81% | growth at 10 µM (A549 [16]): -23% | growth at 10 µM (SNB-19 [17]): -31% | growth at 10 µM (U-251 [18]): -97% | growth at 10 µM (IGROV-1 [19]): -60% | growth at 10 µM (SN12C [20]): -58% | growth at 100 µM (NCI-H322M): -98% | growth at 100 µM (U-251 [21]): -100% | growth at 100 µM (OVCAR-3 [22]): -96% | growth at 100 µM (SK-OV-3): -95% | growth at 100 µM (T47D [23]): -83%

COc1cc2c(cc1OC)C(=O)/C(=C/c1cc(-c3ccc4c(c3)OCO4)n[nH]1)C2
GI50 (CCRF-CEM): 1.14 µM | LC50 (concentration killing 50% of cells) (CCRF-CEM): > 100 µM | TGI (CCRF-CEM): 3.61 µM | GI50 (HL-60(TB) [1]): 2.07 µM | LC50 (HL-60(TB) [1]): > 100 µM | TGI (HL-60(TB) [1]): 5.59 µM | GI50 (MOLT-4): 2.57 µM | TGI (MOLT-4): 6.97 µM | CC50 (MOLT-4): > 100 µM | GI50 (IGROV-1 [2]): 1.89 µM | LC50 (IGROV-1 [2]): 14.3 µM | TGI (IGROV-1 [2]): 4.58 µM | GI50 (OVCAR-3 [3]): 1.41 µM | LC50 (OVCAR-3 [3]): 5.58 µM | TGI (OVCAR-3 [3]): 2.8 µM | GI50 (MCF7 [4]): 0.33 µM | LC50 (MCF7 [4]): 4.52 µM | TGI (MCF7 [4]): 1.42 µM | growth at 0.01 µM (A498): 80% | growth at 0.01 µM (NCI/ADR-RES): 101% | growth at 0.01 µM (SK-MEL-28): 104% | growth at 0.01 µM (Malme-3M): 93% | growth at 0.01 µM (NCI-H522): 91% | growth at 0.01 µM (RPMI-8226 [5]): 100% | growth at 0.1 µM (HL-60(TB) [6]): 95% | growth at 0.1 µM (RPMI-8226 [7]): 93% | growth at 0.1 µM (A549 [8]): 99% | growth at 0.1 µM (COLO 205): 105% | growth at 0.1 µM (SNB-19 [9]): 98% | growth at 0.1 µM (OVCAR-5): 92% | growth at 0.1 µM (PC-3): 89% | growth at 0.1 µM (MCF7 [10]): 89% | growth at 0.1 µM (T47D [11]): 95% | growth at 1 µM (HL-60(TB) [12]): 86% | growth at 1 µM (RPMI-8226 [13]): -24% | growth at 1 µM (A549 [14]): 83% | growth at 1 µM (SN12C [15]): 87% | growth at 1 µM (UO-31): 68% | growth at 1 µM (Hs-578T): 92% | growth at 10 µM (A549 [16]): -30% | growth at 10 µM (SNB-19 [17]): -95% | growth at 10 µM (U-251 [18]): -97% | growth at 10 µM (IGROV-1 [19]): -44% | growth at 10 µM (SN12C [20]): -96% | growth at 100 µM (NCI-H322M): -91% | growth at 100 µM (U-251 [21]): -94% | growth at 100 µM (OVCAR-3 [22]): -90% | growth at 100 µM (SK-OV-3): -97% | growth at 100 µM (T47D [23]): -93%

Source: ChEMBL document CHEMBL4138123, “Design, synthesis and biological evaluation of novel pyrazolochalcones as potential modulators of PI3K/Akt/mTOR pathway and inducers of apoptosis in breast cancer cells” (Eur J Med Chem, 2017)
